Columns and labels:
Format in all cases: physicochemical
[1] = Water sorption and desorption experiment (DVS, hygroscopicity); conditions: 40-80% relative humidity, 25 °C
Protocol: In the following examples, the related analysis and detection conditions are as follows: 1. X-ray powder diffractometer (XRPD) • Instrument: BRUKER D8 Advance X-ray powder diffractometer, Germany. • Conditions: Cu-Kα radiation (λ = 1.5418 Å), tube voltage: 40 kV, tube current: 40 mA, 2θ scanning range: 3-40°, scanning step size: 0.02° (2θ), scanning speed: 10 s/step, sample tray: a zero background sample tray. • Method: a sample was spread on a zero background monocrystalline silicon sample tray and was gently pressed using a medicine spoon to be flat for measurement. 2. Chloride • Detection instrument: Dionex ICS-900 ion chromatograph • Column: Dionex Ion Pac AS11-HC anion chromatographic column (specification: 4 × 250 mm) • Determination method: 10 µL of each of the control solution and the sample solution was measured precisely and injected into the ion chromatograph, the chromatogram was recorded, and the chloride ion content was calculated based on peak area according to the external standard method. 3. Dynamic vapor sorption/desorption (DVS) analysis Instrument: DVS Intrinsic plus (SMS, UK). Method: a sample was placed in a tared sample basket, the weight of the sample was automatically measured, and the sample was analyzed according to the parameters in the table below.
The samples obtained in Preparation Example 2 and Preparation Example 3 were investigated for moisture sorption and desorption under the relative humidity of 40-80% using a dynamic vapor sorption (DVS) instrument at a temperature of 25 °C to determine the hygroscopicity of various salt forms. Table 6 Hygroscopicity experimental results of different salt forms of compound (I) (DVS, 40-80%)

[2] = Solid stability experiment of compound (A); conditions: for Crystalline form: XRPD
[3] = Grinding stability experiment of compound (A); conditions: XRPD

Question: With `CNC(=O)c1cccc2cc(Oc3ccnc(NC(=O)c4ccc(N5C[C@@H](C)N[C@@H](C)C5)cc4)c3)ccc12` [Compound (A)] as the compound, how does the “Hygroscopicity (%)” value [1] read?
Answer: The value was 0.65%.

Question: And the “Hygroscopicity (in words)” value [1]?
Answer: Its value is “slightly hygroscopic”.

Question: What about the Purity/% ([2]; 40 °C/75% RH (open), 7 days) of the same compound?
Answer: The Purity/% was 99.86%.

Question: And the Crystalline form ([2]; 40 °C/75% RH (open), 7 days)?
Answer: The Crystalline form was “Crystalline form I”.

Question: What about the Purity/% ([2]; 60 °C (sealed), 7 days) of the same compound?
Answer: Its Purity/% is 99.85%.

Question: What about the Crystalline form ([2]; 60 °C (sealed), 7 days) of the same compound?
Answer: Its Crystalline form is “Crystalline form I”.

Question: And the Purity/% ([2]; Initial state, 0 days)?
Answer: Its Purity/% is 99.85%.

Question: And the Crystalline form ([2]; Initial state, 0 days)?
Answer: Its Crystalline form is “Crystalline form I”.

Question: What about the Crystalline form ([2]; room temperature/92.5% RH (open), 10 days) of the same compound?
Answer: Its Crystalline form is “Crystalline form I”.

Question: What about the “Crystalline form change after grinding with organic solvent” value ([3]; ground after dropwise addition of methanol, ethanol, acetone, acetonitrile, or ethyl acetate) of the same compound?
Answer: Its value is “no crystalline form change occurred”.

Question: What about the “Crystalline form change after grinding” value ([3]; mechanically ground using a mortar for 2 min and 5 min) of the same compound?
Answer: The value was “no crystalline form change occurred”.

Question: With Fumarate as the compound, how does the “Hygroscopicity (%)” value [1] read?
Answer: Its value is 2.11%.

Question: For Phosphate, which “Hygroscopicity (%)” value [1] is on record?
Answer: Its value is 3.75%.
